Five molecules from publication PMC9144276, “In Vitro and In Silico Evaluation of Cholinesterase Inhibition by Alkaloids Obtained from Branches of Abuta panurensis Eichler” (Molecules, 2022) can be followed below.

Where two headings read alike, the source gives them in different places.

The assay concerns the target T1, acetylcholinesterase enzyme from an electric ray Tetronarce californica (Tetronarce californica, UniProt P04058).
T1 construct: purchased Sigma-Aldrich
Briefly: Acetylcholinesterase inhibition assay (Ellman method, 96-well microplates). The format is biochemical. Conditions: for inhibition percentage toward the AChE enzyme: concentration not given. On the procedure: An acetylcholinesterase enzyme from an electric ray Tetronarce californica (Sigma-Aldrich, St. Louis, MO, USA) was used for the experiments. The in vitro AChE inhibition assay was performed in 96-well microplates according to the methodology proposed by Ellman et al. and Senol et al. with some modifications. The alkaloid fraction and alkaloids were tested at concentrations of 2.8; 5.6; 11.2; 22.5; 45.0 and 90.0 µg/mL. Initially, 20 µL of each sample from the stock solution (1 mg/mL) were added and serial dilutions were performed. Then, 150 µL of a sodium phosphate buffer pH = 8 ([…]), 20 µL of 5,5’-dithio-bis(2- nitrobenzoic)acid (DTNB, 0.0025 M), and 20 µL of the acetylcholinesterase enzyme (1 U/mL) were added subsequently to each well at 25 °C and left for 15 min. The reaction was initiated by the addition of 10 µL of […] (AChI) (0.1 M). Neostigmine (0.28–9.0 μg/mL) was used as a positive control.
A thiocholine formed by the enzymatic hydrolysis of the AChI, reacts with the DTNB giving rise to a yellow 5-mercapto-2-nitrobenzoate anion. Concentration of the latter in each well was measured as absorbance at 405 nm by using a 96-well microplate reader ELx800^TM (Bio Tek Instruments, Inc., Winooski, VT, USA). The transformation was monitored for 30 min at 5-min intervals. The inhibition curve was plotted as the inhibition percent vs. concentration. All assays were performed in triplicate. Statistical analysis was performed with GraphPad Prism 7.0® software.

The mark [1] stands for this setting: TcAChE, Ellman, 25 °C, pH 8, triplicate, read-out: IC50 for the acetylcholinesterase (AChE) inhibition assay.

T1 sequence (P04058 22-586): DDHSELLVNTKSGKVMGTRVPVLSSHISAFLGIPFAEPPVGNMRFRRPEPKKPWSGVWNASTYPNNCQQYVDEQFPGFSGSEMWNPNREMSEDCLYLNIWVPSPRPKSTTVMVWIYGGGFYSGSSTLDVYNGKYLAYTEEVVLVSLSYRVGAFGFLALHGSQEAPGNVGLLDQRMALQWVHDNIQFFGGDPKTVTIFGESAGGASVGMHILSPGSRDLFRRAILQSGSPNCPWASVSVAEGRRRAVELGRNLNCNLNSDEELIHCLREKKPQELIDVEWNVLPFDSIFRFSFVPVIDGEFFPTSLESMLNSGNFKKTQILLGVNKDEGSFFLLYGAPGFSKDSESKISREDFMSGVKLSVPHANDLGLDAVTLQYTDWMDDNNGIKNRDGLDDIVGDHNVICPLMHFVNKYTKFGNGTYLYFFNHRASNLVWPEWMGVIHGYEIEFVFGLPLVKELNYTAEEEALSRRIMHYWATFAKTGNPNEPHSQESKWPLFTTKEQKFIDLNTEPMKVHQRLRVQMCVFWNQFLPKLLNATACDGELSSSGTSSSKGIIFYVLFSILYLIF

As for `COc1cc2c(cc1O)C(Cc1ccc(O)c(Oc3cc4c(cc3OC)CCNC4Cc3ccc(O)cc3)c1)NCC2` (single isomer, unassigned) [lindoldhamine isomer 1, Lindoldhamine isomer], the IC50 under setting [1] was found to be 39.38 ± 0.08 µM. The “inhibition percentage toward the AChE enzyme” value (TcAChE) is on record as “above 70%”.

Take `CN(CCCCNC(=O)/C=C/c1ccccc1)CCCNC(=O)/C=C/c1ccccc1` [5-N-methylmaytenine 4, 5-N-methylmaytenine]: 19.55 ± 0.09 µM corresponded to half-maximal inhibition (IC50). In addition, the “inhibition percentage toward the AChE enzyme” value (TcAChE) is listed as “above 70%”.

As for `CN(C)C(=O)Oc1cccc([N+](C)(C)C)c1` [neostigmine, reference compound], the IC50 under setting [1] is 3.72 ± 0.03 µM. The “inhibition percentage toward the AChE enzyme” value (TcAChE) is listed as “above 70%”.

Turning to `COc1cc2c(cc1OC)-c1cc3ccc(OC)c(OC)c3c[n+]1CC2` [palmatine 3, palmatine], the IC50 under setting [1] amounted to 35.25 ± 0.04 µM. In addition, the “inhibition percentage toward the AChE enzyme” value (TcAChE) is listed as “above 70%”.

Regarding `COc1cc2c3c(c1OC)C1(C=CC(=O)C=C1)CC3NCC2` (stereo not shown) [stepharine 2, stepharine], the IC50 under setting [1] came out at 61.24 ± 0.03 µM. The “inhibition percentage toward the AChE enzyme” value (TcAChE) was “above 70%”.

In general, IC50 refers to the midpoint of a concentration-inhibition curve.
